Assay results from PubChem BioAssay (NCI).
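Exposure lasted 48 hours, with cells grown in 96-well plates and compounds tested at five concentrations. At the TGI there is no net growth.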

Experiments:
Assay in all cases: inhibition of tumour cell growth, NCI panel, 48 h
OVCAR-3 ovarian = tested on: OVCAR-3 ovarian
SK-MEL-28 melanoma = tested on: SK-MEL-28 melanoma
NCI-H226 lung = tested on: NCI-H226 lung
U251 CNS = tested on: U251 CNS
SW-620 colon = tested on: SW-620 colon
T-47D breast = tested on: T-47D breast
MDA-MB-231 breast = tested on: MDA-MB-231 breast
UACC-257 melanoma = tested on: UACC-257 melanoma
SK-MEL-5 melanoma = tested on: SK-MEL-5 melanoma
A549 NSCLC = tested on: A549 NSCLC
NCI/ADR-RES ovarian = tested on: NCI/ADR-RES ovarian
RXF 393 renal = tested on: RXF 393 renal
MDA-MB-435 = tested on: MDA-MB-435
NCI-H460 lung = tested on: NCI-H460 lung
CCRF-CEM leukemia = tested on: CCRF-CEM leukemia
HOP-92 NSCLC = tested on: HOP-92 NSCLC
A498 renal = tested on: A498 renal
SN12C renal = tested on: SN12C renal
MOLT-4 leukemia = tested on: MOLT-4 leukemia
NCI-H23 lung = tested on: NCI-H23 lung
UO-31 renal = tested on: UO-31 renal
MCF7 breast = tested on: MCF7 breast
LOX IMVI melanoma = tested on: LOX IMVI melanoma
IGROV1 ovarian = tested on: IGROV1 ovarian
BT-549 breast = tested on: BT-549 breast
M14 melanoma = tested on: M14 melanoma
SK-OV-3 ovarian = tested on: SK-OV-3 ovarian
MDA-N = tested on: MDA-N
OVCAR-8 ovarian = tested on: OVCAR-8 ovarian
MALME-3M melanoma = tested on: MALME-3M melanoma
SK-MEL-2 melanoma = tested on: SK-MEL-2 melanoma
NCI-H522 lung = tested on: NCI-H522 lung
UACC-62 melanoma = tested on: UACC-62 melanoma
SF-268 CNS = tested on: SF-268 CNS
SF-295 CNS = tested on: SF-295 CNS
COLO 205 colon = tested on: COLO 205 colon
KM12 colon = tested on: KM12 colon
HCT-15 colon = tested on: HCT-15 colon
TK-10 renal = tested on: TK-10 renal
DU-145 prostate = tested on: DU-145 prostate
ACHN renal = tested on: ACHN renal
OVCAR-4 ovarian = tested on: OVCAR-4 ovarian
HOP-62 NSCLC = tested on: HOP-62 NSCLC
CAKI-1 renal = tested on: CAKI-1 renal
PC-3 prostate = tested on: PC-3 prostate
SR leukemia = tested on: SR leukemia
HL-60(TB) leukemia = tested on: HL-60(TB) leukemia
K-562 leukemia = tested on: K-562 leukemia
SF-539 CNS = tested on: SF-539 CNS
786-0 renal = tested on: 786-0 renal
RPMI-8226 leukemia = tested on: RPMI-8226 leukemia
HT29 colon = tested on: HT29 colon
OVCAR-5 ovarian = tested on: OVCAR-5 ovarian
SNB-19 CNS = tested on: SNB-19 CNS
HCT-116 colon = tested on: HCT-116 colon
EKVX NSCLC = tested on: EKVX NSCLC
SNB-75 CNS = tested on: SNB-75 CNS
HS 578T breast = tested on: HS 578T breast

In the case of `OC1c2ccccc2C(O)C2OC12` (stereo not drawn), the TGI (OVCAR-3 ovarian) is reported as > 100 µM, the TGI (SK-MEL-28 melanoma) is reported as > 100 µM and the TGI (NCI-H226 lung) is reported as > 100 µM. The TGI (U251 CNS) was > 100 µM, the TGI (SW-620 colon) was > 100 µM and the TGI (T-47D breast) was > 100 µM. The TGI (MDA-MB-231 breast) was > 100 µM, the TGI (UACC-257 melanoma) was > 100 µM and the TGI (SK-MEL-5 melanoma) was > 100 µM. For the same molecule, the TGI (A549 NSCLC) was > 100 µM, the TGI (NCI/ADR-RES ovarian) was > 100 µM and the TGI (RXF 393 renal) was > 100 µM. For the same molecule, the TGI (MDA-MB-435) was > 100 µM, the TGI (NCI-H460 lung) was > 100 µM and the TGI (CCRF-CEM leukemia) was > 100 µM. The TGI (HOP-92 NSCLC) was > 100 µM, the TGI (A498 renal) was > 100 µM and the TGI (SN12C renal) was > 100 µM. The TGI (MOLT-4 leukemia) was > 100 µM, the TGI (NCI-H23 lung) was > 100 µM and the TGI (UO-31 renal) was > 100 µM. For the same molecule, the TGI (MCF7 breast) was > 100 µM, the TGI (LOX IMVI melanoma) was > 100 µM and the TGI (IGROV1 ovarian) was > 100 µM. For the same molecule, the TGI (BT-549 breast) was > 100 µM, the TGI (M14 melanoma) was > 100 µM and the TGI (SK-OV-3 ovarian) was > 100 µM. The TGI (MDA-N) was > 100 µM, the TGI (OVCAR-8 ovarian) was > 100 µM and the TGI (MALME-3M melanoma) was > 100 µM. For the same molecule, the TGI (SK-MEL-2 melanoma) was > 100 µM, the TGI (NCI-H522 lung) was > 100 µM and the TGI (UACC-62 melanoma) was > 100 µM. For the same molecule, the TGI (SF-268 CNS) was > 100 µM, the TGI (SF-295 CNS) was > 100 µM and the TGI (COLO 205 colon) was > 100 µM. The TGI (KM12 colon) was > 100 µM, the TGI (HCT-15 colon) was > 100 µM and the TGI (TK-10 renal) was > 100 µM. For the same molecule, the TGI (DU-145 prostate) was > 100 µM, the TGI (ACHN renal) was > 100 µM and the TGI (OVCAR-4 ovarian) was > 100 µM. For the same molecule, the TGI (HOP-62 NSCLC) was > 100 µM, the TGI (CAKI-1 renal) was > 100 µM and the TGI (PC-3 prostate) was > 100 µM. The TGI (SR leukemia) was > 100 µM, the TGI (HL-60(TB) leukemia) was > 100 µM and the TGI (K-562 leukemia) was > 100 µM. For the same molecule, the TGI (SF-539 CNS) was > 100 µM, the TGI (786-0 renal) was > 100 µM and the TGI (RPMI-8226 leukemia) was > 100 µM. For the same molecule, the TGI (HT29 colon) was > 100 µM, the TGI (OVCAR-5 ovarian) was > 100 µM and the TGI (SNB-19 CNS) was > 100 µM. The TGI (HCT-116 colon) was > 100 µM.
For `C/C=C1\CC(C(=O)OCC)CCCCCCCCCCC1=O` (stereo not drawn), the TGI (EKVX NSCLC) was > 100 µM, the TGI (SK-MEL-28 melanoma) was > 100 µM and the TGI (NCI-H226 lung) was > 100 µM. For the same molecule, the TGI (U251 CNS) was > 100 µM, the TGI (SW-620 colon) was > 100 µM and the TGI (T-47D breast) was > 100 µM. The TGI (MDA-MB-231 breast) was > 100 µM, the TGI (UACC-257 melanoma) was > 100 µM and the TGI (SK-MEL-5 melanoma) was > 100 µM. The TGI (A549 NSCLC) was > 100 µM, the TGI (NCI/ADR-RES ovarian) was > 100 µM and the TGI (RXF 393 renal) was > 100 µM. The TGI (MDA-MB-435) was 38 µM, the TGI (NCI-H460 lung) was > 100 µM and the TGI (CCRF-CEM leukemia) was > 100 µM. The TGI (A498 renal) was > 100 µM, the TGI (SN12C renal) was > 100 µM and the TGI (MOLT-4 leukemia) was > 100 µM. The TGI (NCI-H23 lung) was > 100 µM, the TGI (UO-31 renal) was > 100 µM and the TGI (MCF7 breast) was > 100 µM. For the same molecule, the TGI (LOX IMVI melanoma) was 80.8 µM, the TGI (IGROV1 ovarian) was > 100 µM and the TGI (BT-549 breast) was > 100 µM. The TGI (M14 melanoma) was > 100 µM, the TGI (SK-OV-3 ovarian) was > 100 µM and the TGI (MDA-N) was > 100 µM. The TGI (OVCAR-8 ovarian) was > 100 µM, the TGI (MALME-3M melanoma) was > 100 µM and the TGI (SK-MEL-2 melanoma) was > 100 µM. For the same molecule, the TGI (NCI-H522 lung) was 81.5 µM, the TGI (UACC-62 melanoma) was > 100 µM and the TGI (SF-268 CNS) was > 100 µM. The TGI (SNB-75 CNS) was > 100 µM, the TGI (SF-295 CNS) was > 100 µM and the TGI (COLO 205 colon) was > 100 µM. The TGI (KM12 colon) was > 100 µM, the TGI (HCT-15 colon) was > 100 µM and the TGI (TK-10 renal) was > 100 µM. For the same molecule, the TGI (DU-145 prostate) was > 100 µM, the TGI (ACHN renal) was > 100 µM and the TGI (OVCAR-4 ovarian) was > 100 µM. The TGI (HOP-62 NSCLC) was > 100 µM, the TGI (CAKI-1 renal) was > 100 µM and the TGI (PC-3 prostate) was > 100 µM. For the same molecule, the TGI (HL-60(TB) leukemia) was > 100 µM, the TGI (HS 578T breast) was > 100 µM and the TGI (SF-539 CNS) was > 100 µM. For the same molecule, the TGI (786-0 renal) was > 100 µM, the TGI (HT29 colon) was > 100 µM and the TGI (OVCAR-5 ovarian) was > 100 µM. The TGI (SNB-19 CNS) was > 100 µM and the TGI (HCT-116 colon) was > 100 µM.
